Reference: the OligoGym collection
HELM strings list units from the 5' end as sugar, base in round brackets, then linkage (d deoxyribose, r ribose, m 2'-O-methyl, p phosphodiester). Strings are as the collection lists them; they lack the last nucleoside at the 3' end of the tested compound. [moe] = 2'-O-(2-methoxyethyl) (MOE); [sp] = phosphorothioate linkage; [m5C] = 5-methylcytosine

Target: ATXN2
Test: mouse, dose not given
Conditions: ASO

For “RNA1{[moe]([m5C])[sp].[moe](T)p.[moe](A)p.[moe](T)p.[moe](T)[sp].d(T)[sp].d([m5C])[sp].d(T)[sp].d(T)[sp].d(T)[sp].d(G)[sp].d(T)[sp].d([m5C])[sp].[moe]([m5C])p.[moe](A)p.[moe](G)[sp].[moe](G)}$$$$ (last 3' nucleoside missing)”, which 3 h FOB score is on record?
The 3 h FOB score was 3.25 score 0-7.

“RNA1{[moe]([m5C])[sp].[moe](T)p.[moe](A)p.[moe](T)p.[moe]([m5C])[sp].d(A)[sp].d(T)[sp].d([m5C])[sp].d(A)[sp].d(T)[sp].d(T)[sp].d(T)[sp].d(T)[sp].[moe]([m5C])p.[moe]([m5C])p.[moe](A)[sp].[moe](G)}$$$$ (last 3' nucleoside missing)” was tested. Which 3 h FOB score did it give?
Its 3 h FOB score is 1 score 0-7.

How did the 3 h FOB score turn out when “RNA1{[moe]([m5C])[sp].[moe](T)p.[moe](A)p.[moe](T)p.[moe]([m5C])p.d(A)[sp].d(T)[sp].d([m5C])[sp].d(A)[sp].d(T)[sp].d(T)[sp].d(T)[sp].d(T)[sp].d([m5C])[sp].d([m5C])[sp].[moe](A)p.[moe](G)p.[moe](G)[sp].[moe](G)}$$$$ (last 3' nucleoside missing)” was run?
Its 3 h FOB score is 1 score 0-7.

Which 3 h FOB score does the source give for “RNA1{[moe]([m5C])[sp].[moe](T)p.[moe](G)p.[moe](G)p.[moe](A)[sp].d(T)[sp].d(T)[sp].d([m5C])[sp].d(T)[sp].d(G)[sp].d(T)[sp].d(A)[sp].d([m5C])[sp].[moe](T)p.[moe](T)p.[moe](T)[sp].[moe](T)}$$$$ (last 3' nucleoside missing)” here?
The 3 h FOB score was 3.75 score 0-7.

“RNA1{[moe]([m5C])[sp].[moe](T)p.[moe](G)p.[moe](G)p.[moe](A)p.[moe](T)p.d(T)[sp].d([m5C])[sp].d(T)[sp].d(G)[sp].d(T)[sp].d(A)[sp].d([m5C])[sp].d(T)[sp].d(T)[sp].d(T)[sp].[moe](T)p.[moe]([m5C])[sp].[moe](T)}$$$$ (last 3' nucleoside missing)” was tested. Which 3 h FOB score did it give?
The 3 h FOB score was 1 score 0-7.

With “RNA1{[moe]([m5C])[sp].[moe](T)p.[moe](G)p.[moe](G)p.[moe](A)p.d(T)[sp].d(T)[sp].d([m5C])[sp].d(T)[sp].d(G)[sp].d(T)[sp].d(A)[sp].d([m5C])[sp].d(T)[sp].d(T)[sp].[moe](T)p.[moe](T)p.[moe]([m5C])[sp].[moe](T)}$$$$ (last 3' nucleoside missing)” as the substance, how does the 3 h FOB score read?
The 3 h FOB score was 5.25 score 0-7.

With “RNA1{[moe]([m5C])[sp].[moe](T)p.[moe](G)p.[moe](G)p.[moe](T)p.d(T)[sp].d([m5C])[sp].d([m5C])[sp].d(T)[sp].d(T)[sp].d(A)[sp].d([m5C])[sp].d(A)[sp].d(A)[sp].d(T)[sp].[moe](T)p.[moe](A)p.[moe](T)[sp].[moe]([m5C])}$$$$ (last 3' nucleoside missing)” as the substance, how does the 3 h FOB score read?
The 3 h FOB score was 1 score 0-7.

How did the 3 h FOB score turn out when “RNA1{[moe]([m5C])[sp].[moe](T)p.[moe](G)p.[moe](G)p.d(A)[sp].d(T)[sp].d(T)[sp].d([m5C])[sp].d(T)[sp].d(G)[sp].d(T)[sp].d(A)[sp].d([m5C])[sp].d(T)[sp].[moe](T)p.[moe](T)p.[moe](T)p.[moe]([m5C])[sp].[moe](T)}$$$$ (last 3' nucleoside missing)” was run?
The 3 h FOB score was 2 score 0-7.

Which 3 h FOB score does the source give for “RNA1{[moe]([m5C])[sp].[moe](T)p.[moe](G)p.[moe](T)p.[moe](A)[sp].d([m5C])[sp].d(T)[sp].d(T)[sp].d(T)[sp].d(T)[sp].d([m5C])[sp].d(T)[sp].d([m5C])[sp].[moe](A)p.[moe](T)p.[moe](G)[sp].[moe](T)}$$$$ (last 3' nucleoside missing)” here?
The 3 h FOB score was 3.5 score 0-7.

Which 3 h FOB score does the source give for “RNA1{[moe]([m5C])[sp].[moe](T)p.[moe](G)p.[moe](T)p.[moe](A)p.d([m5C])[sp].d(T)[sp].d(T)[sp].d(T)[sp].d(T)[sp].d([m5C])[sp].d(T)[sp].d([m5C])[sp].d(A)[sp].d(T)[sp].[moe](G)p.[moe](T)p.[moe](G)[sp].[moe]([m5C])}$$$$ (last 3' nucleoside missing)” here?
Its 3 h FOB score is 1.25 score 0-7.

For “RNA1{[moe]([m5C])[sp].[moe](T)p.[moe](G)p.[moe](T)p.[moe](G)p.d(A)[sp].d(G)[sp].d(T)[sp].d(T)[sp].d([m5C])[sp].d(A)[sp].d([m5C])[sp].d([m5C])[sp].d(T)[sp].d(G)[sp].[moe]([m5C])p.[moe](A)p.[moe](T)[sp].[moe]([m5C])}$$$$ (last 3' nucleoside missing)”, which 3 h FOB score is on record?
The 3 h FOB score was 1 score 0-7.

With “RNA1{[moe]([m5C])[sp].[moe](T)p.[moe](G)p.[moe](T)p.[moe](G)p.d(T)[sp].d(A)[sp].d(T)[sp].d(T)[sp].d(T)[sp].d(T)[sp].d(T)[sp].d([m5C])[sp].d(T)[sp].d(T)[sp].[moe]([m5C])p.[moe]([m5C])p.[moe](T)[sp].[moe]([m5C])}$$$$ (last 3' nucleoside missing)” as the substance, how does the 3 h FOB score read?
The 3 h FOB score was 0 score 0-7.

Which 3 h FOB score does the source give for “RNA1{[moe]([m5C])[sp].[moe](T)p.[moe](G)p.[moe]([m5C])p.[moe](T)[sp].d(A)[sp].d(A)[sp].d([m5C])[sp].d(T)[sp].d(G)[sp].d(G)[sp].d(T)[sp].d(T)[sp].[moe](T)p.[moe](G)p.[moe]([m5C])[sp].[moe]([m5C])}$$$$ (last 3' nucleoside missing)” here?
The 3 h FOB score was 4 score 0-7.

“RNA1{[moe]([m5C])[sp].[moe](T)p.[moe](G)p.[moe]([m5C])p.[moe](T)p.[moe](A)p.d(A)[sp].d([m5C])[sp].d(T)[sp].d(G)[sp].d(G)[sp].d(T)[sp].d(T)[sp].d(T)[sp].d(G)[sp].d([m5C])[sp].[moe]([m5C])p.[moe]([m5C])[sp].[moe](T)}$$$$ (last 3' nucleoside missing)” was tested. Which 3 h FOB score did it give?
The 3 h FOB score was 5.5 score 0-7.

For “RNA1{[moe]([m5C])[sp].[moe](T)p.[moe](G)p.[moe]([m5C])p.[moe](T)p.d(A)[sp].d(A)[sp].d([m5C])[sp].d(T)[sp].d(G)[sp].d(G)[sp].d(T)[sp].d(T)[sp].d(T)[sp].d(G)[sp].[moe]([m5C])p.[moe]([m5C])p.[moe]([m5C])[sp].[moe](T)}$$$$ (last 3' nucleoside missing)”, which 3 h FOB score is on record?
Its 3 h FOB score is 6 score 0-7.

For “RNA1{[moe]([m5C])[sp].[moe](T)p.[moe](G)p.[moe]([m5C])p.d(T)[sp].d(A)[sp].d(A)[sp].d([m5C])[sp].d(T)[sp].d(G)[sp].d(G)[sp].d(T)[sp].d(T)[sp].d(T)[sp].[moe](G)p.[moe]([m5C])p.[moe]([m5C])p.[moe]([m5C])[sp].[moe](T)}$$$$ (last 3' nucleoside missing)”, which 3 h FOB score is on record?
Its 3 h FOB score is 1 score 0-7.

Which 3 h FOB score does the source give for “RNA1{[moe]([m5C])[sp].[moe](T)p.[moe](T)p.[moe](A)p.[moe](G)[sp].d(A)[sp].d(G)[sp].d(T)[sp].d(T)[sp].d(T)[sp].d(T)[sp].d(T)[sp].d(G)[sp].[moe]([m5C])p.[moe]([m5C])p.[moe](T)[sp].[moe](T)}$$$$ (last 3' nucleoside missing)” here?
Its 3 h FOB score is 6 score 0-7.

Which 3 h FOB score does the source give for “RNA1{[moe]([m5C])[sp].[moe](T)p.[moe](T)p.[moe](A)p.[moe](G)p.[moe](A)p.d(G)[sp].d(T)[sp].d(T)[sp].d(T)[sp].d(T)[sp].d(T)[sp].d(G)[sp].d([m5C])[sp].d([m5C])[sp].d(T)[sp].[moe](T)p.[moe]([m5C])[sp].[moe]([m5C])}$$$$ (last 3' nucleoside missing)” here?
The 3 h FOB score was 4.5 score 0-7.

With “RNA1{[moe]([m5C])[sp].[moe](T)p.[moe](T)p.[moe](A)p.[moe](G)p.d(A)[sp].d(G)[sp].d(T)[sp].d(T)[sp].d(T)[sp].d(T)[sp].d(T)[sp].d(G)[sp].d([m5C])[sp].d([m5C])[sp].[moe](T)p.[moe](T)p.[moe]([m5C])[sp].[moe]([m5C])}$$$$ (last 3' nucleoside missing)” as the substance, how does the 3 h FOB score read?
Its 3 h FOB score is 4 score 0-7.

Which 3 h FOB score does the source give for “RNA1{[moe]([m5C])[sp].[moe](T)p.[moe](T)p.[moe](A)p.d(G)[sp].d(A)[sp].d(G)[sp].d(T)[sp].d(T)[sp].d(T)[sp].d(T)[sp].d(T)[sp].d(G)[sp].d([m5C])[sp].[moe]([m5C])p.[moe](T)p.[moe](T)p.[moe]([m5C])[sp].[moe]([m5C])}$$$$ (last 3' nucleoside missing)” here?
The 3 h FOB score was 5.5 score 0-7.

With “RNA1{[moe]([m5C])[sp].[moe](T)p.[moe](T)p.[moe](G)p.[moe](T)p.d(A)[sp].d([m5C])[sp].d(T)[sp].d(T)[sp].d([m5C])[sp].d(A)[sp].d([m5C])[sp].d(A)[sp].d(T)[sp].d(T)[sp].[moe](T)p.[moe](G)p.[moe](G)[sp].[moe](A)}$$$$ (last 3' nucleoside missing)” as the substance, how does the 3 h FOB score read?
The 3 h FOB score was 2.25 score 0-7.

How did the 3 h FOB score turn out when “RNA1{[moe]([m5C])[sp].[moe](T)p.[moe](T)p.[moe](G)p.[moe](T)p.d(T)[sp].d(G)[sp].d(T)[sp].d(T)[sp].d(G)[sp].d(T)[sp].d(T)[sp].d(T)[sp].d(A)[sp].d([m5C])[sp].[moe](A)p.[moe](T)p.[moe](T)[sp].[moe](A)}$$$$ (last 3' nucleoside missing)” was run?
The 3 h FOB score was 3 score 0-7.

Which 3 h FOB score does the source give for “RNA1{[moe]([m5C])[sp].[moe](T)p.[moe](T)p.[moe](T)p.[moe](T)[sp].d([m5C])[sp].d(T)[sp].d([m5C])[sp].d(A)[sp].d(T)[sp].d(G)[sp].d(T)[sp].d(G)[sp].[moe]([m5C])p.[moe](G)p.[moe](G)[sp].[moe]([m5C])}$$$$ (last 3' nucleoside missing)” here?
Its 3 h FOB score is 5.5 score 0-7.

How did the 3 h FOB score turn out when “RNA1{[moe]([m5C])[sp].[moe](T)p.[moe](T)p.[moe](T)p.[moe](T)p.d([m5C])[sp].d(T)[sp].d([m5C])[sp].d(A)[sp].d(T)[sp].d(G)[sp].d(T)[sp].d(G)[sp].d([m5C])[sp].d(G)[sp].[moe](G)p.[moe]([m5C])p.[moe](A)[sp].[moe](T)}$$$$ (last 3' nucleoside missing)” was run?
Its 3 h FOB score is 6.25 score 0-7.

For “RNA1{[moe]([m5C])[sp].[moe](T)p.[moe](T)p.[moe]([m5C])p.[moe](T)[sp].d([m5C])[sp].d(T)[sp].d(A)[sp].d(T)[sp].d(T)[sp].d(T)[sp].d([m5C])[sp].d(T)[sp].[moe](T)p.[moe](T)p.[moe](G)[sp].[moe](T)}$$$$ (last 3' nucleoside missing)”, which 3 h FOB score is on record?
Its 3 h FOB score is 0 score 0-7.

With “RNA1{[moe]([m5C])[sp].[moe](T)p.[moe](T)p.[moe]([m5C])p.[moe](T)p.d(G)[sp].d([m5C])[sp].d(T)[sp].d(A)[sp].d(A)[sp].d([m5C])[sp].d(T)[sp].d(G)[sp].d(G)[sp].d(T)[sp].[moe](T)p.[moe](T)p.[moe](G)[sp].[moe]([m5C])}$$$$ (last 3' nucleoside missing)” as the substance, how does the 3 h FOB score read?
Its 3 h FOB score is 2.5 score 0-7.
